Assay results from patent publication US20200188466A1, “COMPOSITIONS OF SCHISANDRA EXTRACTS AND METHODS THEREOF” (Reyoung Corporation, priority 2017, published 2020).

Assay: Toxicological study: serum chemistry after celastrol with and without Schisandrin A
Type: in vivo, Sprague Dawley rats
Settings: rats, 24 hours after celastrol 1.8 mg/kg oral
Description: 42 Male Sprague Dawley rats (weight, 210-250 g) were maintained on a 12-hour light/dark cycle with free access to water and lab chow for 10-14 h prior to the experiment. Rats were randomly divided into 7 groups (n=6 each) and groups 2-7 received 0 mg/kg, 5.5 mg/kg, and 11.0 mg/kg, 22.0 mg/kg, 44.0 mg/kg and 88.0 mg/kg of Schisandrin A in 1% CMC-Na (300-800 cps) via oral administration, respectively. After 5 minutes, all the groups received 1.8 mg/kg of celastrol in a solution of 2% DMSO-98% sterile water via oral administration.
At 24 hours of celastrol treatment, blood was collected from the rats in plasma kinetic study.

[1] = Group 1, no Schisandrin A dose stated
[2] = Group 2, Schisandrin A 0 mg/kg oral
[3] = Group 3, Schisandrin A 5.5 mg/kg oral
[4] = Group 4, Schisandrin A 11.0 mg/kg oral
[5] = Group 5, Schisandrin A 22.0 mg/kg oral
[6] = Group 6, Schisandrin A 44.0 mg/kg oral
[7] = Group 7, Schisandrin A 88.0 mg/kg oral

CC1=C(O)C(=O)C=C2C1=CC=C1[C@@]2(C)CC[C@@]2(C)[C@@H]3C[C@](C)(C(=O)O)CC[C@]3(C)CC[C@]12C [celastrol]
Serum ALT [1]: 54.5 ± 6.7 U/L | Serum AST [1]: 100.0 ± 7.0 U/L | Serum creatinine [1]: 0.48 ± 0.01 mg/dL | Serum urea [1]: 19.6 ± 2.7 mg/dL | Serum ALT [2]: 51.2 ± 3.5 U/L | Serum AST [2]: 92.0 ± 6.0 U/L | Serum creatinine [2]: 0.49 ± 0.05 mg/dL | Serum urea [2]: 20.1 ± 1.8 mg/dL | Serum ALT [3]: 54.5 ± 5.7 U/L | Serum AST [3]: 91.0 ± 4.0 U/L | Serum creatinine [3]: 0.48 ± 0.02 mg/dL | Serum urea [3]: 19.4 ± 2.5 mg/dL | Serum ALT [4]: 52.5 ± 5.8 U/L | Serum AST [4]: 91.0 ± 9.0 U/L | Serum creatinine [4]: 0.49 ± 0.02 mg/dL | Serum urea [4]: 18.3 ± 1.5 mg/dL | Serum ALT [5]: 49.3 ± 6.1 U/L | Serum AST [5]: 106.0 ± 14.0 U/L | Serum creatinine [5]: 0.50 ± 0.02 mg/dL | Serum urea [5]: 16.5 ± 1.5 mg/dL | Serum ALT [6]: 52.4 ± 8.3 U/L | Serum AST [6]: 111.0 ± 40.0 U/L | Serum creatinine [6]: 0.49 ± 0.01 mg/dL | Serum urea [6]: 17.9 ± 4.0 mg/dL | Serum ALT [7]: 53.4 ± 7.1 U/L | Serum AST [7]: 92.0 ± 9.0 U/L | Serum creatinine [7]: 0.49 ± 0.03 mg/dL | Serum urea [7]: 18.8 ± 3.4 mg/dL
